Measurements taken from US12370161B2, “Composition for treating atopy or pruritus comprising N-acetyl or N-acyl amino acid” (STEMDR INC., priority 2017, dated 2025).

System: atopic dermatitis-induced Balb/c mouse
Assay: SCORAD clinical skin score, DNFB-induced atopic dermatitis in Balb/c mouse
Assay type: in vivo
Set-up: key to Mouse 1 Sum / Mean (of Sum, SCORAD) / Mouse 2 Sum / Mouse 3 Sum: sum of symptom grades, each 0 (none) to 3 (severe)
Conditions: DNFB Balb/c; for Mouse 1 Erythema: 0.1% in PBS, 200 μL on back skin daily day 22-28, grade 0-3 (0 no symptom, 1 mild, 2 moderate, 3 severe); for Mouse 1 Abrasion / Mouse 1 Dryness / Mouse 1 Edema / Mouse 1 Eschar / Mouse 1 Lichenification / Mouse 1 Sum / Mouse 2 Abrasion / Mouse 2 Dryness / Mouse 2 Edema / Mouse 2 Erythema / Mouse 2 Eschar / Mouse 2 Lichenification / Mouse 2 Sum / Mouse 3 Abrasion / Mouse 3 Dryness / Mouse 3 Edema / Mouse 3 Erythema / Mouse 3 Eschar / Mouse 3 Lichenification / Mouse 3 Sum / Mean (of Sum, SCORAD): 0.1% topical day 22-28; for Mouse 1 Abrasion / Mouse 1 Dryness / Mouse 1 Edema / Mouse 1 Eschar / Mouse 1 Lichenification / Mouse 2 Abrasion / Mouse 2 Dryness / Mouse 2 Edema / Mouse 2 Erythema / Mouse 2 Eschar / Mouse 2 Lichenification / Mouse 3 Abrasion / Mouse 3 Dryness / Mouse 3 Edema / Mouse 3 Erythema / Mouse 3 Eschar / Mouse 3 Lichenification: grade 0-3; for Mouse 1 Sum / Mouse 2 Sum / Mouse 3 Sum: overall dermatitis score, sum of individual scores; for Mean (of Sum, SCORAD): mean of 3 mice
Protocol: In order to induce atopy-like dermatitis in Balb/c mice, DNFB sensitization was induced by applying 100 μL of 0.35% 2,4-dinitrofluorobenzene (DNFB) (Sigma, USA) in acetone/olive oil (3:1) on the shaved back skin of the mice. Then, dermatitis was induced by applying 100 μL of 0.25% DNFB on days 6, 9, 12, 15, 18 21, 24 and 27 on the shaved back skin. Control mice were treated with a vehicle of the same volume (FIG. 1A).
After dissolving an N-acetyl or N-acylamino acid in phosphate-buffered saline to 0.1%, 200 μL of the solution was applied on the back skin of the mice every day, from day 22 until day 28 for the Balb/c atopic dermatitis model, and from day 15 until day 21 for the Nc/Nga atopic dermatitis model. When the N-acetyl or N-acylamino acid was treated together with DNFB, they were treated with 12-hour intervals in order to avoid direct reaction between the DNFB and the N-acetyl or N-acylamino acid. A non-treated group and a 2,4-dinitrofluorobenzene (DNFB) group were treated with phosphate-buffered saline of the same volume (FIGS. 1A-1B). As the N-acetylamino acid, products purchased from Sigma-Aldrich (USA), MP scientific (USA), TCI (Tokyo Chemical Industry, Japan), Santacruz (USA), etc. were used without purification.
The degree of skin soothing and the severity of atopic dermatitis were evaluated macroscopically according to the previously established SCORAD (SCORing Atopic Dermatitis) method (Oranje et al., 2007). The degree of symptoms such as edema, erythema, eschar, dryness, abrasion, lichenification, etc. was graded from 0 to 3 (0, no symptom; 1, mild; 2, moderate; 3, severe). The overall dermatitis score was determined from the sum of all individual scores (Table 1). The assessment was performed by an investigator who was blind to the grouping of the mice.

CC(=O)N[C@@H](Cc1ccccc1)C(=O)O [N-acetyl-L-phenylalanme]
14: Mouse 3 Sum | Mean (of Sum, SCORAD)
13: Mouse 1 Sum
3: Mouse 1 Erythema | Mouse 1 Dryness | Mouse 2 Dryness | Mouse 2 Erythema | Mouse 2 Lichenification | Mouse 3 Dryness | Mouse 3 Erythema | Mouse 3 Lichenification
1: Mouse 1 Eschar | Mouse 3 Abrasion
15: Mouse 2 Sum
2: Mouse 1 Abrasion | Mouse 1 Edema | Mouse 1 Lichenification | Mouse 2 Abrasion | Mouse 2 Edema | Mouse 2 Eschar | Mouse 3 Edema | Mouse 3 Eschar

CC(=O)N[C@@H](CC(N)=O)C(=O)O [N-acetyl-L-asparagine]
3: Mouse 1 Erythema | Mouse 1 Abrasion | Mouse 1 Dryness | Mouse 2 Abrasion | Mouse 2 Eschar | Mouse 2 Lichenification | Mouse 3 Dryness | Mouse 3 Edema | Mouse 3 Erythema | Mouse 3 Eschar
14: Mouse 2 Sum
15: Mouse 1 Sum | Mean (of Sum, SCORAD)
2: Mouse 1 Edema | Mouse 1 Eschar | Mouse 1 Lichenification | Mouse 2 Dryness | Mouse 2 Edema | Mouse 2 Erythema | Mouse 3 Abrasion | Mouse 3 Lichenification
16: Mouse 3 Sum

CSCC[C@H](NC(C)=O)C(=O)O [N-acetyl-L-methionine]
3: Mouse 1 Dryness | Mouse 1 Lichenification | Mouse 2 Dryness | Mouse 2 Erythema | Mouse 2 Eschar | Mouse 2 Lichenification | Mouse 3 Dryness | Mouse 3 Lichenification
14.67: Mean (of Sum, SCORAD)
16: Mouse 2 Sum
2: Mouse 1 Erythema | Mouse 1 Abrasion | Mouse 1 Edema | Mouse 1 Eschar | Mouse 2 Abrasion | Mouse 2 Edema | Mouse 3 Abrasion | Mouse 3 Edema | Mouse 3 Erythema | Mouse 3 Eschar
14: Mouse 1 Sum | Mouse 3 Sum

CC(=O)N[C@@H](Cc1c[nH]cn1)C(=O)O [N-acetyl-L-histidine]
15: Mouse 1 Sum | Mouse 2 Sum
14.67: Mean (of Sum, SCORAD)
2: Mouse 1 Abrasion | Mouse 1 Edema | Mouse 1 Eschar | Mouse 2 Abrasion | Mouse 2 Edema | Mouse 2 Eschar | Mouse 3 Abrasion | Mouse 3 Edema | Mouse 3 Eschar | Mouse 3 Lichenification
14: Mouse 3 Sum
3: Mouse 1 Erythema | Mouse 1 Dryness | Mouse 1 Lichenification | Mouse 2 Dryness | Mouse 2 Erythema | Mouse 2 Lichenification | Mouse 3 Dryness | Mouse 3 Erythema

CC(=O)N[C@@H](CCC(=O)O)C(=O)O [N-acetyl-L-glutamic acid]
14: Mouse 1 Sum
12: Mouse 3 Sum
13: Mouse 2 Sum | Mean (of Sum, SCORAD)
2: Mouse 1 Abrasion | Mouse 1 Dryness | Mouse 1 Edema | Mouse 1 Eschar | Mouse 2 Abrasion | Mouse 2 Edema | Mouse 2 Erythema | Mouse 2 Eschar | Mouse 2 Lichenification | Mouse 3 Abrasion | Mouse 3 Edema | Mouse 3 Eschar | Mouse 3 Lichenification
3: Mouse 1 Erythema | Mouse 1 Lichenification | Mouse 2 Dryness | Mouse 3 Dryness
1: Mouse 3 Erythema

CC(=O)N[C@@H](CCC(N)=O)C(=O)O [N-acetyl-L-glutamine]
1: Mouse 3 Lichenification
3: Mouse 1 Lichenification
13: Mouse 1 Sum
12: Mouse 2 Sum | Mean (of Sum, SCORAD)
11: Mouse 3 Sum
2: Mouse 1 Erythema | Mouse 1 Abrasion | Mouse 1 Dryness | Mouse 1 Edema | Mouse 1 Eschar | Mouse 2 Abrasion | Mouse 2 Dryness | Mouse 2 Edema | Mouse 2 Erythema | Mouse 2 Eschar | Mouse 2 Lichenification | Mouse 3 Abrasion | Mouse 3 Dryness | Mouse 3 Edema | Mouse 3 Erythema | Mouse 3 Eschar

CC(=O)N[C@@H](CC(=O)O)C(=O)O [N-acetyl-L-aspartic acid]
1: Mouse 3 Lichenification
3: Mouse 1 Erythema | Mouse 2 Dryness | Mouse 2 Erythema | Mouse 3 Erythema
14: Mouse 2 Sum
13: Mouse 1 Sum | Mean (of Sum, SCORAD)
2: Mouse 1 Abrasion | Mouse 1 Dryness | Mouse 1 Edema | Mouse 1 Eschar | Mouse 1 Lichenification | Mouse 2 Abrasion | Mouse 2 Edema | Mouse 2 Eschar | Mouse 2 Lichenification | Mouse 3 Abrasion | Mouse 3 Dryness | Mouse 3 Edema | Mouse 3 Eschar
12: Mouse 3 Sum

CC(=O)N[C@@H](CCCCN)C(=O)O [N-acetyl-L-Lysine]
13: Mouse 1 Sum
3: Mouse 1 Erythema | Mouse 1 Dryness | Mouse 2 Edema | Mouse 2 Erythema | Mouse 2 Lichenification | Mouse 3 Dryness | Mouse 3 Erythema
2: Mouse 1 Abrasion | Mouse 1 Edema | Mouse 1 Eschar | Mouse 2 Abrasion | Mouse 2 Dryness | Mouse 2 Eschar | Mouse 3 Abrasion | Mouse 3 Edema | Mouse 3 Eschar | Mouse 3 Lichenification
14: Mouse 3 Sum | Mean (of Sum, SCORAD)
1: Mouse 1 Lichenification
15: Mouse 2 Sum

CC[C@H](C)[C@H](NC(C)=O)C(=O)O [N-acetyl-L-isoleucine]
2: Mouse 1 Edema | Mouse 2 Abrasion | Mouse 2 Edema | Mouse 2 Erythema | Mouse 2 Eschar | Mouse 3 Edema | Mouse 3 Eschar
3: Mouse 1 Erythema | Mouse 1 Dryness | Mouse 1 Eschar | Mouse 1 Lichenification | Mouse 2 Dryness | Mouse 2 Lichenification | Mouse 3 Dryness | Mouse 3 Erythema | Mouse 3 Lichenification
14: Mouse 2 Sum | Mouse 3 Sum
1: Mouse 1 Abrasion | Mouse 3 Abrasion
14.33: Mean (of Sum, SCORAD)
15: Mouse 1 Sum

CC(=O)N[C@@H](CO)C(=O)O [N-acetyl-L-serine]
15: Mouse 2 Sum
3: Mouse 1 Erythema | Mouse 2 Dryness | Mouse 2 Erythema | Mouse 2 Lichenification | Mouse 3 Dryness | Mouse 3 Erythema
2: Mouse 1 Abrasion | Mouse 1 Dryness | Mouse 1 Edema | Mouse 1 Eschar | Mouse 1 Lichenification | Mouse 2 Abrasion | Mouse 2 Edema | Mouse 2 Eschar | Mouse 3 Abrasion | Mouse 3 Edema | Mouse 3 Eschar | Mouse 3 Lichenification
13: Mouse 1 Sum
14: Mouse 3 Sum | Mean (of Sum, SCORAD)
